Assay results as given in PMC2771346 (Molecular microbiology, 2009).

Target: ObgE (Escherichia coli, UniProt P42641)
Assay: inhibition of single-turnover GTP hydrolysis, TLC of gamma-32P-GTP
Format: biochemical

Sequence of ObgE (P42641 whole entry): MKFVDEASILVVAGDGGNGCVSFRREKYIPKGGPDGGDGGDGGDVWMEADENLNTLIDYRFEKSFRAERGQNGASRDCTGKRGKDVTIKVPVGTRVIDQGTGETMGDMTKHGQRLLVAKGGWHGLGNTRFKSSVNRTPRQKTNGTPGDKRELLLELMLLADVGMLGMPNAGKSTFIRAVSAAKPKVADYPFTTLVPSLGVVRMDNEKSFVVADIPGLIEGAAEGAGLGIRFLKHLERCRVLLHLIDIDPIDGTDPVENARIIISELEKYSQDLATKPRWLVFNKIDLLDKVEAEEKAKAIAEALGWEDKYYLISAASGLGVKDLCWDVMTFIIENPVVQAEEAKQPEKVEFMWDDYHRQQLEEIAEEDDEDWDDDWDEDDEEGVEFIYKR

- Ki: 1600 ± 400 nM
SMILES: Nc1nc2c(ncn2[C@@H]2O[C@H](COP(=O)(O)OP(=O)(O)O)[C@@H](O)[C@H]2O)c(=O)[nH]1 [GDP]
